Source: PubChem BioAssay AID1259407 (Chemical Carcinogenesis Research Information System (CCRIS), 2018)
Calls of active or inactive are those of the source. How the calls were made is not given here.

System: CCRIS mutagenicity, Ames/micronucleus/aberration tests
Experiment: CCRIS mutagenicity studies
[1] = Test System: AMES SALMONELLA TYPHIMURIUM, Strain/Indicator: TA98, Metabolic Activation: NONE, Method: STANDARD PLATE
[2] = Test System: AMES SALMONELLA TYPHIMURIUM, Strain/Indicator: TA98, Metabolic Activation: RAT, LIVER, S-9, AROCLOR 1254, Method: STANDARD PLATE
[3] = Test System: AMES SALMONELLA TYPHIMURIUM, Strain/Indicator: TA100, Metabolic Activation: NONE, Method: STANDARD PLATE
[4] = Test System: AMES SALMONELLA TYPHIMURIUM, Strain/Indicator: TA100, Metabolic Activation: RAT, LIVER, S-9, AROCLOR 1254, Method: STANDARD PLATE
[5] = Test System: AMES SALMONELLA TYPHIMURIUM, Strain/Indicator: TA1535, Metabolic Activation: NONE, Method: STANDARD PLATE

For `Nc1ccc2c(c1)C(=O)c1ccccc1C2=O`, which mutagenic call (End Point: IN VITRO CHROMOSOMAL ABERRATIONS, Test System: CHL CELLS, Metabolic Activation: RAT, LIVER, S-9, SODIUM PHENOBARBITAL AND 5,6-BENZOFLAVONE) is on record?
Its mutagenic call is “inactive; negative”.

And the mutagenic call (Test System: AMES SALMONELLA TYPHIMURIUM, Strain/Indicator: TA98, Metabolic Activation: HAMSTER, LIVER, S-9, AROCLOR 1254, Method: STANDARD PLATE)?
The mutagenic call was “active; positive”.

And the mutagenic call (Test System: AMES SALMONELLA TYPHIMURIUM, Strain/Indicator: TA98, Metabolic Activation: HAMSTER, LIVER, S-9, Method: STANDARD PLATE)?
Its mutagenic call is “active; positive”.

And the mutagenic call (Test System: AMES SALMONELLA TYPHIMURIUM, Strain/Indicator: TA98, Metabolic Activation: MOUSE, LIVER, S-9, AROCLOR 1254, Method: STANDARD PLATE)?
Its mutagenic call is “active; positive”.

And the mutagenic call (Test System: AMES SALMONELLA TYPHIMURIUM, Strain/Indicator: TA98, Metabolic Activation: MOUSE, LIVER, S-9, Method: STANDARD PLATE)?
The mutagenic call was “active; positive”.

What about the mutagenic call [1] of the same molecule?
The mutagenic call was “inactive; negative”.

What about the mutagenic call [2] of the same molecule?
Its mutagenic call is “active; positive”.

What about the mutagenic call (Test System: AMES SALMONELLA TYPHIMURIUM, Strain/Indicator: TA98, Metabolic Activation: RAT, LIVER, S-9, Method: STANDARD PLATE) of the same molecule?
Its mutagenic call is “active; positive”.

What about the mutagenic call (Test System: AMES SALMONELLA TYPHIMURIUM, Strain/Indicator: TA100, Metabolic Activation: HAMSTER, LIVER, S-9, AROCLOR 1254, Method: STANDARD PLATE) of the same molecule?
Its mutagenic call is “active; positive”.

What about the mutagenic call (Test System: AMES SALMONELLA TYPHIMURIUM, Strain/Indicator: TA100, Metabolic Activation: HAMSTER, LIVER, S-9, Method: STANDARD PLATE) of the same molecule?
The mutagenic call was “active; positive”.

What about the mutagenic call (Test System: AMES SALMONELLA TYPHIMURIUM, Strain/Indicator: TA100, Metabolic Activation: MOUSE, LIVER, S-9, AROCLOR 1254, Method: STANDARD PLATE) of the same molecule?
Its mutagenic call is “active; positive”.

What about the mutagenic call [3] of the same molecule?
Its mutagenic call is “inactive; negative”.

What about the mutagenic call [4] of the same molecule?
Its mutagenic call is “active; positive”.

And the mutagenic call (Test System: AMES SALMONELLA TYPHIMURIUM, Strain/Indicator: TA1535, Metabolic Activation: HAMSTER, LIVER, S-9, Method: STANDARD PLATE)?
Its mutagenic call is “inactive; negative”.

What about the mutagenic call (Test System: AMES SALMONELLA TYPHIMURIUM, Strain/Indicator: TA1535, Metabolic Activation: MOUSE, LIVER, S-9, AROCLOR 1254, Method: STANDARD PLATE) of the same molecule?
The mutagenic call was “inactive; negative”.

And the mutagenic call (Test System: AMES SALMONELLA TYPHIMURIUM, Strain/Indicator: TA1535, Metabolic Activation: MOUSE, LIVER, S-9, Method: STANDARD PLATE)?
The mutagenic call was “inactive; negative”.

What about the mutagenic call [5] of the same molecule?
Its mutagenic call is “inactive; negative”.

What about the mutagenic call (Test System: AMES SALMONELLA TYPHIMURIUM, Strain/Indicator: TA1537, Metabolic Activation: HAMSTER, LIVER, S-9, AROCLOR 1254, Method: STANDARD PLATE) of the same molecule?
Its mutagenic call is “active; positive”.

What about the mutagenic call (Test System: AMES SALMONELLA TYPHIMURIUM, Strain/Indicator: TA1537, Metabolic Activation: HAMSTER, LIVER, S-9, Method: STANDARD PLATE) of the same molecule?
The mutagenic call was “active; positive”.

What about the mutagenic call (Test System: AMES SALMONELLA TYPHIMURIUM, Strain/Indicator: TA1537, Metabolic Activation: MOUSE, LIVER, S-9, AROCLOR 1254, Method: STANDARD PLATE) of the same molecule?
The mutagenic call was “active; positive”.

And the mutagenic call (Test System: AMES SALMONELLA TYPHIMURIUM, Strain/Indicator: TA1537, Metabolic Activation: MOUSE, LIVER, S-9, Method: STANDARD PLATE)?
Its mutagenic call is “active; positive”.

And the mutagenic call (Test System: AMES SALMONELLA TYPHIMURIUM, Strain/Indicator: TA1537, Metabolic Activation: RAT, LIVER, S-9, AROCLOR 1254, Method: STANDARD PLATE)?
Its mutagenic call is “active; positive”.

What about the mutagenic call (Test System: AMES SALMONELLA TYPHIMURIUM, Strain/Indicator: TA1537, Metabolic Activation: RAT, LIVER, S-9, Method: STANDARD PLATE) of the same molecule?
Its mutagenic call is “active; positive”.

What about the mutagenic call (Test System: AMES SALMONELLA TYPHIMURIUM, Strain/Indicator: TA1538, Metabolic Activation: HAMSTER, LIVER, S-9, AROCLOR 1254, Method: STANDARD PLATE) of the same molecule?
Its mutagenic call is “active; positive”.

And the mutagenic call (Test System: AMES SALMONELLA TYPHIMURIUM, Strain/Indicator: TA1538, Metabolic Activation: HAMSTER, LIVER, S-9, Method: STANDARD PLATE)?
Its mutagenic call is “active; positive”.

What about the mutagenic call (Test System: AMES SALMONELLA TYPHIMURIUM, Strain/Indicator: TA1538, Metabolic Activation: MOUSE, LIVER, S-9, AROCLOR 1254, Method: STANDARD PLATE) of the same molecule?
The mutagenic call was “active; positive”.

What about the mutagenic call (Test System: AMES SALMONELLA TYPHIMURIUM, Strain/Indicator: TA1538, Metabolic Activation: MOUSE, LIVER, S-9, Method: STANDARD PLATE) of the same molecule?
The mutagenic call was “active; positive”.

And the mutagenic call (Test System: AMES SALMONELLA TYPHIMURIUM, Strain/Indicator: TA1538, Metabolic Activation: NONE, Method: STANDARD PLATE)?
The mutagenic call was “inactive; negative”.

And the mutagenic call (Test System: AMES SALMONELLA TYPHIMURIUM, Strain/Indicator: TA1538, Metabolic Activation: RAT, LIVER, S-9, AROCLOR 1254, Method: STANDARD PLATE)?
Its mutagenic call is “active; positive”.

What about the mutagenic call (Test System: AMES SALMONELLA TYPHIMURIUM, Strain/Indicator: TA1538, Metabolic Activation: RAT, LIVER, S-9, Method: STANDARD PLATE) of the same molecule?
The mutagenic call was “active; positive”.

And the mutagenic call (Test System: E. COLI, Strain/Indicator: WP2 UVRA, Metabolic Activation: HAMSTER, LIVER, S-9, Method: STANDARD PLATE)?
Its mutagenic call is “inactive; negative”.

And the mutagenic call (Test System: E. COLI, Strain/Indicator: WP2 UVRA, Metabolic Activation: MOUSE, LIVER, S-9, Method: STANDARD PLATE)?
Its mutagenic call is “inactive; negative”.

What about the mutagenic call (Test System: E. COLI, Strain/Indicator: WP2 UVRA, Metabolic Activation: NONE, Method: STANDARD PLATE) of the same molecule?
Its mutagenic call is “inactive; negative”.

What about the mutagenic call (Test System: E. COLI, Strain/Indicator: WP2 UVRA, Metabolic Activation: RAT, LIVER, S-9, Method: STANDARD PLATE) of the same molecule?
Its mutagenic call is “inactive; negative”.

And the mutagenic call (Test System: MOUSE LYMPHOMA, Strain/Indicator: L5178Y (TK+/TK-), Metabolic Activation: NONE, Method: SUSPENSION/PLATE)?
The mutagenic call was “active; positive”.

`Cc1cccc2cc([N+](=O)[O-])ccc12` was tested. Which mutagenic call (Test System: AMES SALMONELLA TYPHIMURIUM, Strain/Indicator: TA98, Metabolic Activation: NONE, Method: PREINCUBATION) did it give?
Its mutagenic call is “active; positive”.

Which mutagenic call (Test System: AMES SALMONELLA TYPHIMURIUM, Strain/Indicator: GSTT1, Metabolic Activation: RAT, LIVER, S-9, AROCLOR 1254, Method: STANDARD PLATE) does the source give for `ClCCCCl` here?
Its mutagenic call is “inactive; negative”.

And the mutagenic call (Test System: AMES SALMONELLA TYPHIMURIUM, Strain/Indicator: RSJ100, Metabolic Activation: NONE, Method: STANDARD PLATE)?
Its mutagenic call is “inactive; negative”.

And the mutagenic call [1]?
The mutagenic call was “inactive; negative”.

And the mutagenic call [2]?
Its mutagenic call is “inactive; negative”.

And the mutagenic call [3]?
Its mutagenic call is “inactive; negative”.

What about the mutagenic call [4] of the same molecule?
Its mutagenic call is “inactive; negative”.

What about the mutagenic call (Test System: AMES SALMONELLA TYPHIMURIUM, Strain/Indicator: TA104, Metabolic Activation: NONE, Method: STANDARD PLATE) of the same molecule?
Its mutagenic call is “inactive; negative”.

What about the mutagenic call (Test System: AMES SALMONELLA TYPHIMURIUM, Strain/Indicator: TA104, Metabolic Activation: RAT, LIVER, S-9, AROCLOR 1254, Method: STANDARD PLATE) of the same molecule?
Its mutagenic call is “inactive; negative”.

What about the mutagenic call [5] of the same molecule?
Its mutagenic call is “inactive; negative”.

And the mutagenic call (Test System: AMES SALMONELLA TYPHIMURIUM, Strain/Indicator: TA1535, Metabolic Activation: RAT, LIVER, S-9, AROCLOR 1254, Method: STANDARD PLATE)?
Its mutagenic call is “inactive; negative”.

What does the source list for `CCCCOS(=O)(=O)c1ccccc1`?
mutagenic call (End Point: IN VITRO MICRONUCLEUS, Test System: MOUSE LYMPHOMA L5178Y CELLS, Metabolic Activation: NONE): inactive; negative; mutagenic call (End Point: IN VITRO MICRONUCLEUS, Test System: MOUSE LYMPHOMA L5178Y CELLS, Metabolic Activation: RAT, LIVER, S-9): inactive; negative; mutagenic call (End Point: In vitro micronucleus, Test System: Chinese Hamster Ovary (CHO-WBL) cells, Metabolic Activation: None): active; positive (p<0.01); mutagenic call [3]: active; positive; mutagenic call (Test System: AMES SALMONELLA TYPHIMURIUM, Strain/Indicator: TA100, Metabolic Activation: RAT, LIVER, S-9, Method: STANDARD PLATE): active; positive

`O=[N+]([O-])c1cccc2c1c([N+](=O)[O-])cc1ccccc12` was tested. Which mutagenic call (Test System: AMES SALMONELLA TYPHIMURIUM, Strain/Indicator: TA98(1,8-DNP6), Metabolic Activation: NONE, Method: STANDARD PLATE) did it give?
The mutagenic call was “active; positive”.

And the mutagenic call (Test System: AMES SALMONELLA TYPHIMURIUM, Strain/Indicator: TA98(NR), Metabolic Activation: NONE, Method: STANDARD PLATE)?
Its mutagenic call is “active; positive”.

What about the mutagenic call [1] of the same molecule?
Its mutagenic call is “active; positive”.

And the mutagenic call [3]?
Its mutagenic call is “active; positive”.

What about the mutagenic call (Test System: AMES SALMONELLA TYPHIMURIUM, Strain/Indicator: YG1021, Metabolic Activation: NONE, Method: STANDARD PLATE) of the same molecule?
The mutagenic call was “active; positive”.

And the mutagenic call (Test System: AMES SALMONELLA TYPHIMURIUM, Strain/Indicator: YG1024, Metabolic Activation: NONE, Method: STANDARD PLATE)?
The mutagenic call was “active; positive”.

And the mutagenic call (Test System: AMES SALMONELLA TYPHIMURIUM, Strain/Indicator: YG1026, Metabolic Activation: NONE, Method: STANDARD PLATE)?
Its mutagenic call is “active; positive”.

And the mutagenic call (Test System: AMES SALMONELLA TYPHIMURIUM, Strain/Indicator: YG1029, Metabolic Activation: NONE, Method: STANDARD PLATE)?
The mutagenic call was “active; positive”.
